The target in one test is T1, purified recombinant human PARP (Homo sapiens, UniProt P09874).
T1 construct: purchased Trevigan (Gaithersburg, Md.)
T1 sequence (P09874 whole entry): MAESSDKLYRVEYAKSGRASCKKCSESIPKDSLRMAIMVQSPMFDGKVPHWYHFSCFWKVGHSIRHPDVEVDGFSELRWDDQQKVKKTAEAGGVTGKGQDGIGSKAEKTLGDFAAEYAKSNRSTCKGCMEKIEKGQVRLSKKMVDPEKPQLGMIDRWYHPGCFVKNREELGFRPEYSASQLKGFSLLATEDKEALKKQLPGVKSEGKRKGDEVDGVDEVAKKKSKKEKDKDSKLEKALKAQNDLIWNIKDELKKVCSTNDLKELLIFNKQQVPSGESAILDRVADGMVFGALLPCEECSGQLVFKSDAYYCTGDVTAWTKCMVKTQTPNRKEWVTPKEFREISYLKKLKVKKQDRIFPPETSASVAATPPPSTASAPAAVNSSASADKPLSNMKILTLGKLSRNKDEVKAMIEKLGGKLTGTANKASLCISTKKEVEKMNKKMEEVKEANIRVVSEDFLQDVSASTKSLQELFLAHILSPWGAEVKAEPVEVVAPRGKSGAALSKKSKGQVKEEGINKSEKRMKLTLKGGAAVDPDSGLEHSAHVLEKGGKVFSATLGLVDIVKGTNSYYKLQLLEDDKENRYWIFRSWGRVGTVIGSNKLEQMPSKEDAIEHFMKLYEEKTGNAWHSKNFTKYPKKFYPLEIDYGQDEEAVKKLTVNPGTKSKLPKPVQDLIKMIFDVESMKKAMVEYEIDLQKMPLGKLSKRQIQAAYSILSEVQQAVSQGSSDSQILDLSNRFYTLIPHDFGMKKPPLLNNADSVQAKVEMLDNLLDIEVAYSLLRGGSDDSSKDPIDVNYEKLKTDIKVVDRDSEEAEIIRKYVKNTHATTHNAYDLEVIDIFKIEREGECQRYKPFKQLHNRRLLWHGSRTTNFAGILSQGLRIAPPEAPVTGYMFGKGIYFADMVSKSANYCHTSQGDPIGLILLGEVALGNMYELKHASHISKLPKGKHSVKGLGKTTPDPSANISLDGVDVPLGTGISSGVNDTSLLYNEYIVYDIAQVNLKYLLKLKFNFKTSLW
Briefly: PARP enzyme assay (IC50). In kind it is biochemical. Particulars: IC50 (μM), approximate IC50 values, [3H]NAD. Here is the method:
The reaction is initiated by adding enzyme and incubating the mixture at 25° C. After 2 minutes of incubation, the reaction is terminated by adding 500 microliters of ice cold 30% (w/v) trichloroacetic acid. The precipitate formed is transferred onto a glass fiber filter Packard Unifilter-GF/C) and washed three times with 70% ethanol. After the filter is dried, the radioactivity is determined by scintillation counting.
The term IC50 denotes the point on the concentration scale where inhibition reaches its midpoint. `CN(Cc1ccccc1)Cc1nc2cccc3c2n1CCNC3=O` [drawing 179]: the IC50 is 0.166 µM. Still for that read-out and setting: as for `O=c1[nH]c2ccc(N3C[C@@H]4C[C@H]3CN4)nc2c2ccccc12`, the figure is 0.042 µM; as for `CN(Cc1ccccc1)Cc1nc2cccc3c2n1CCNC3=O` [drawing 162], 0.088 µM.

Take `Cc1nc2cccc3c2n1CCNC3=O`: the half-inhibitory concentration (IC50) turned out to be 0.141 µM.

The same test, now with this note: approximate IC50 values, [3H]NAD, read-out: IC50.
`COc1ccc(CC(C)c2nc3cccc4c3n2CCNC4=O)cc1` (stereo not drawn): the half-maximal inhibitory concentration (IC50) is 0.128 µM. Same read-out and setting: as for `O=C1NCCn2c(-c3cccc(Cl)c3)nc3cccc1c32`, the figure is 0.08 µM; as for `O=C1NCCn2c(-c3cc(F)cc(F)c3)nc3cccc1c32`, 0.061 µM; as for `O=c1[nH]c2ccc(OCc3ccccc3)nc2c2ccccc12`, 20 µM. Same read-out and setting: as for `O=C1NCCn2c(Cn3ccnc3)nc3cccc1c32`, the figure is 0.738 µM; as for `O=C1NN=Cc2c(-c3ccccc3)[nH]c3cccc1c23`, 0.01 µM; as for `Cn1c(-c2ccccc2)c2c3c(cccc31)C(=O)NN=C2`, 0.047 µM. The same measure, in the same setting: as for `CCCCCN(CCCCC)Cc1nc2cccc3c2n1CCNC3=O`, the figure is 0.915 µM. For the compound `CCN(CC)CCCNC(=O)c1cccc(-c2nc3cccc4c3n2CCNC4=O)c1`, the IC50 is 0.179 µM.

For `O=C1NCCn2c(-c3ccccc3F)nc3cccc1c32`, the IC50 was 0.329 µM.

`O=C1NCCn2c(-c3ccc(Br)s3)nc3cccc1c32`: the IC50 is 0.094 µM. Same read-out and setting: in the case of `COC(=O)C1CN(Cc2nc3cccc4c3n2CCNC4=O)CCC1=O` (stereo not drawn) it was 0.441 µM. On the same count and under the same terms, as for `O=C1NCCn2c(C3CCCCC3)nc3cccc1c32`, the figure is 0.204 µM. Same read-out and setting: in the case of `CN(C)CCN(C)CC1=NNC(=O)c2cccc3[nH]cc1c23` it was 0.035 µM; in that of `O=C1NCCn2c(-c3ccc(O)cc3O)nc3cccc1c32`, 0.186 µM; in that of `O=C(NCCN1CCCCC1)c1cccc(-c2nc3cccc4c3n2CCNC4=O)c1`, 0.376 µM. On to `Cn1cc2c3c(cccc31)C(=O)NCC2=O`, for which the IC50 is 0.028 µM. As for `CN(C)CC(=O)Nc1ccc2[nH]c(=O)c3ccccc3c2n1`, the IC50 worked out at 0.098 µM. Still for that read-out and setting: as for `O=C1NCCn2c(CN3CCCCCCC3)nc3cccc1c32`, the figure is 0.6 µM; as for `CC(C)N(Cc1nc2cccc3c2n1CCNC3=O)C(C)C`, 0.647 µM; as for `O=C1NN=C(Cc2ccccc2)c2c[nH]c3cccc1c23`, 0.064 µM.

`O=C1NN=C(CN2CCCCC2)c2c[nH]c3cccc1c23`: the half-maximal inhibitory concentration (IC50) came out at 0.027 µM.

For `O=C1NCCn2c(CN3CCN(Cc4ccc5c(c4)OCO5)CC3)nc3cccc1c32`, the 50% inhibitory concentration (IC50) was 0.12 µM.

For `Cn1c(-c2ccccc2)c2c3c(cccc31)C(=O)NCC2=O`, the IC50 came to 0.058 µM. Consider `CCN1CCN(CC2=NNC(=O)c3cccc4[nH]cc2c34)CC1`, for which the IC50 stood at 0.06 µM. Still for that read-out and setting: as for `O=C1NCCn2c(COCc3ccccc3)nc3cccc1c32`, the figure is 0.434 µM. Same read-out and setting: as for `O=C1NCCn2c(O)nc3cccc1c32`, the figure is 1.4 µM; as for `CN1CCN(Cc2nc3cccc4c3n2CCNC4=O)CC1`, 1.57 µM; as for `CCC(=O)Nc1cnc2c(c1)[nH]c(=O)c1ccccc12`, 0.111 µM. Turning to `CC(C)(C)OC(=O)n1cc2c3c(cccc31)C(=O)NN=C2`, the IC50 amounted to 1.2 µM. On the same count and under the same terms, in the case of `CC(=O)OCc1ccc(-c2nc3cccc4c3n2CCNC4=O)o1` it was 0.068 µM; in that of `O=C1NCCn2c(CN3CCCc4ccccc43)nc3cccc1c32`, 0.818 µM; in that of `CCN(CC)CC1=NNC(=O)c2cccc3[nH]cc1c23`, 0.034 µM. Turning to `O=C1NCCn2c(CN(Cc3ccccc3)Cc3ccccc3)nc3cccc1c32`, the IC50 worked out at 0.218 µM. As for `CN(C)CCN(Cc1ccccc1)Cc1nc2cccc3c2n1CCNC3=O`, the IC50 came to 0.153 µM. Same read-out and setting: as for `O=C1NCCn2c(CN3CCc4ccccc4C3)nc3cccc1c32`, the figure is 0.193 µM; as for `O=C1NN=Cc2cn(Cc3ccccc3)c3cccc1c23`, 13 µM; as for `O=C(CN1CCC(N2CCCC2)CC1)Nc1ccc2[nH]c(=O)c3ccccc3c2n1`, 0.142 µM. Same read-out and setting: as for `O=C1NN=C(CN2CCN(c3ccccn3)CC2)c2c[nH]c3cccc1c23` [drawing 106], the figure is 0.037 µM. Same read-out and setting: in the case of `O=C1NCCn2c(CN(CCc3ccccc3)Cc3ccccc3)nc3cccc1c32` it was 10.5 µM; in that of `O=C1NCCn2c(-c3ccc(-c4cccc(Cl)c4)o3)nc3cccc1c32`, 0.2 µM; in that of `O=C(NCCN1CCOCC1)c1cccc(-c2nc3cccc4c3n2CCNC4=O)c1`, 0.448 µM. Take `O=C1NN=C(CN2CCC(N3CCCC3)CC2)c2c[nH]c3cccc1c23`: the IC50 amounted to 0.098 µM.

With `Nc1ccc(C2CNC(=O)c3cccc4[nH]cc2c34)cc1` (stereo not drawn), the IC50 is 0.172 µM.

As to `O=C1NCCn2c(/C=C/c3ccccc3)nc3cccc1c32`, the IC50 was 0.071 µM. In the case of `CN(C)Cc1nc2cccc3c2n1CCNC3=O`, the IC50 was found to be 0.068 µM.

In the case of `O=C(O)CCc1nc2cccc3c2n1CCNC3=O`, the IC50 was found to be 1.44 µM. The same measure, in the same setting: in the case of `O=C1NCCn2c(-c3cc(O)c(O)c(O)c3)nc3cccc1c32` it was 0.324 µM; in that of `O=C1NN=C(CN2CCOCC2)c2c[nH]c3cccc1c23`, 0.037 µM. Same read-out and setting: as for `COC(=O)C1CN(C(=O)c2cccc(-c3nc4cccc5c4n3CCNC5=O)c2)CCC1=O` (stereo not drawn), the figure is 0.375 µM. Same read-out and setting: as for `O=C1NCCn2cnc3cccc1c32`, the figure is 0.299 µM; as for `O=C1NC=Cc2c[nH]c3cccc1c23`, 0.161 µM; as for `O=C1NN=C(c2ccccc2)c2c[nH]c3cccc1c23`, 0.021 µM. Regarding `O=C1NN=Cn2cnc3cccc1c32`, the IC50 was determined as 20 µM. As to `Cc1ccc(-c2nc3cccc4c3n2CCNC4=O)cc1`, the IC50 was 0.11 µM. Still for that read-out and setting: in the case of `CN(Cc1nc2cccc3c2n1CCNC3=O)C1CCCCC1` it was 0.46 µM. On the same count and under the same terms, in the case of `O=C1NN=Cc2c(Br)[nH]c3cccc1c23` it was 0.026 µM; in that of `O=C1NCCc2c(Br)[nH]c3cccc1c23`, 0.051 µM. Same read-out and setting: in the case of `CC(C)(C)OC(=O)N1CCN(Cc2nc3cccc4c3n2CCNC4=O)CC1` it was 0.266 µM; in that of `O=C1NCCn2c(-c3cccc(C(=O)N4CC5CC4CN5Cc4ccccc4)c3)nc3cccc1c32` (stereo not drawn), 0.405 µM. Consider `CN(C)CCNC(=O)c1cccc(-c2nc3cccc4c3n2CCNC4=O)c1`, for which the IC50 was 0.246 µM. Same read-out and setting: as for `O=C1NCCn2c(-c3ccc(F)cc3)nc3cccc1c32`, the figure is 0.201 µM; as for `O=c1[nH]c2ccc(NCCN3CCOCC3)nc2c2ccccc12`, 0.339 µM; as for `O=C1NCCn2c(CN3CCOCC3)nc3cccc1c32`, 0.523 µM.

On to `Cn1cc2c3c(cccc31)C(=O)NCC2O` (stereo not drawn), for which the IC50 turned out to be 0.79 µM.

Take `COc1ccc(N(C)Cc2nc3cccc4c3n2CCNC4=O)cc1`: the IC50 was determined as 0.121 µM. In the case of `O=C1NN=C(CN2CCCC2)c2c[nH]c3cccc1c23`, the IC50 was 0.033 µM. Same read-out and setting: as for `O=C1NN=C(CN2CCN(Cc3ccccc3)CC2)c2c[nH]c3cccc1c23`, the figure is 0.141 µM. Still for that read-out and setting: as for `O=C1NC=C(Br)c2c[nH]c3cccc1c23`, the figure is 0.061 µM. On the same count and under the same terms, as for `CCCCCCN(CCCCCC)Cc1nc2cccc3c2n1CCNC3=O`, the figure is 0.915 µM.

Regarding `CN(C)CCCN(C)Cc1nc2cccc3c2n1CCNC3=O`, the IC50 turned out to be 0.473 µM.

For `O=c1[nH]c2ccc(N3CCNCC3)nc2c2ccccc12`, the IC50 is 0.045 µM. On the same count and under the same terms, as for `CCCN(CCC)Cc1nc2cccc3c2n1CCNC3=O`, the figure is 0.204 µM; as for `COc1ccc(/C=C/c2nc3cccc4c3n2CCNC4=O)cc1`, 0.142 µM; as for `Cn1cc2c3c(cccc31)C(=O)NN=C2`, 0.146 µM.

For the compound `O=C1NCCn2c(-c3ccc(-c4ccccc4Cl)o3)nc3cccc1c32`, the IC50 was found to be 0.145 µM. As to `CN(C)CC(=O)Nc1cnc2c(c1)[nH]c(=O)c1ccccc12`, the IC50 was 0.165 µM. On the same count and under the same terms, in the case of `CC(Cc1nc2cccc3c2n1CCNC3=O)c1ccccc1` (stereo not drawn) it was 0.13 µM. Turning to `O=C1NCCn2ccc3cccc1c32`, the IC50 was found to be 0.7 µM.

With `CC(C)N1CCN(CC(=O)Nc2cnc3c(c2)[nH]c(=O)c2ccccc23)CC1`, the IC50 is 0.086 µM. `Cc1cccc(-c2nc3cccc4c3n2CCNC4=O)c1`: the IC50 is 0.097 µM. For the compound `O=C1NCCn2c(C=C(c3ccccc3)c3ccccc3)nc3cccc1c32`, the IC50 was 0.33 µM. Still for that read-out and setting: in the case of `O=C1CNC(=O)c2cccc3[nH]cc1c23` it was 0.035 µM; in that of `CC(C)N1CCN(c2ccc3[nH]c(=O)c4ccccc4c3n2)CC1`, 0.179 µM; in that of `O=C1NN=Cc2c(Br)n(Cc3ccccc3)c3cccc1c23`, 20 µM. Consider `O=C1NCCn2c(C#Cc3ccccc3)nc3cccc1c32`, for which the IC50 was found to be 0.044 µM. Still for that read-out and setting: in the case of `O=C1NCCn2c(-c3ccco3)nc3cccc1c32` it was 0.108 µM. Still for that read-out and setting: as for `O=C1NCC(c2ccc(F)cc2)c2c[nH]c3cccc1c23` (stereo not drawn), the figure is 0.427 µM.

Consider `O=C1NCCc2c[nH]c3cccc1c23`, for which the IC50 is 0.366 µM. With `CC(C)(C)OC(=O)[C@@H]1CCCN1Cc1nc2cccc3c2n1CCNC3=O`, the IC50 was 0.349 µM. Take `CCCCN(CCCC)Cc1nc2cccc3c2n1CCNC3=O`: the IC50 is 1.75 µM. On the same count and under the same terms, as for `CC(C)(C)OC(=O)Cn1c(Br)c2c3c(cccc31)C(=O)NN=C2`, the figure is 24.1 µM.

Consider `Cn1cc(-c2nc3cccc4c3n2CCNC4=O)c2ccccc21`, for which the IC50 was 0.268 µM. On the same count and under the same terms, as for `O=C1NN=Cc2c(-c3ccc(F)cc3)[nH]c3cccc1c23`, the figure is 0.073 µM; as for `O=C1NCCn2c(CN3CCCCCC3)nc3cccc1c32`, 1 µM; as for `O=C1NCCn2c(-c3cccc(Br)c3)nc3cccc1c32`, 0.106 µM. `O=C(O)c1cccc(-c2nc3cccc4c3n2CCNC4=O)c1`: the IC50 worked out at 0.155 µM. Still for that read-out and setting: in the case of `COC1CNC(=O)c2cccc3c2c1cn3C` (stereo not drawn) it was 4.6 µM; in that of `O=C(CN1CCC(N2CCCC2)CC1)Nc1cnc2c(c1)[nH]c(=O)c1ccccc12`, 0.134 µM; in that of `O=C1NCCn2c(-c3ccc([N+](=O)[O-])o3)nc3cccc1c32`, 0.021 µM. Still for that read-out and setting: as for `O=C1NCCn2c(CN3CCCCC3CO)nc3cccc1c32` (stereo not drawn), the figure is 0.337 µM.

The values above are taken from patent US7235557B2, “Compounds and their uses” (MGI GP, Inc., priority 2000, dated 2007).
